One data set concerns HS explant cultures. To be noted: cited from earlier work.
The next data set has as its system B cells. To be noted: case study; cited from earlier work.
The conditions of data set [1]: human, in vivo; cited from earlier work.
A short description of data set [2]: Co-administration of LOU064 with oral contraceptives. To be noted: in vivo. The source says:
Therefore, in a preferred embodiment, LOU064 is co-administered with oral contraceptives.

In data set [3] the target is T1, BTK (Homo sapiens, UniProt Q06187).
T1 construct: simulate BTK occupancy in human spleen/tissues; from tissue; host or cells: human spleen / lymph node / peripheral tissue B cells (simulated, not measured)
As to the kind of experiment: Phase I clinical study (Kaul et al. 2021): PK, BTK occupancy in blood, short-term safety. The class given is in vivo. The source says: BTK occupancy in blood is not an informative biomarker for the purpose of dose selection due to LOU064 pharmacological properties (irreversible binding). […] Occupancy in tissue may be more representative of the expected efficacy of LOU064.
Pharmacokinetic data from a Phase I clinical study reported by Kaul et al. (2021) were used in the current analysis, including 102 patients.
A population PK model has been developed to describe the interim PK from a Phase I clinical study reported by Kaul et al. (2021). […] Overall the resulting population model described the PK data reasonably well.

Data set [4] in a line: Phase 2b randomized, double-blind, placebo-controlled core study in CSU patients. The class given is in vivo. As for the experimental part: In a Phase 2b, randomized, double-blind, placebo-controlled trial evaluating the efficacy and safety of LOU064 over 12 weeks in patients inadequately controlled by […], with at least moderately active chronic spontaneous urticaria (CSU), patients received LOU064 10 mg q.d. (once daily), 35 mg q.d., 100 mg q.d., 10 mg b.i.d. (twice daily), 25 mg b.i.d., 100 mg b.i.d., or placebo (1:1:1:1:1:1:1 ratio).
(Table 5) In the long-term exposure of the ES (median 35.14 wks, N=183), the proportion of patients with at least one adverse effect (AE) on remibrutinib treatment (57.4% [n=105]) was similar to the CS (presented through for any remibrutinib dose) (58.1% [n=155]; median 12.14 wks, N=267). In the ES, there were 4 serious adverse effects (SAEs), 6 AEs leading to treatment discontinuation and no deaths. The incidences of AEs by […] (SOC) reported in the ES and CS were similar: infections and infestations (23.0% and 24.0%), followed by skin/subcutaneous tissue disorder (17.5% and 16.9%) (Table 5). […] Incidence of AESI in the ES such as infections (23%), bleeding (4.4%) and cytopenias (0.5%) were in line with the CS. Newly occurring notable transaminase increases were single in both ES (isolated ALT>3×ULN, normalized within 4 weeks, in 1 patient discontinued early for personal reasons) and CS (ALT>5×ULN in 1 patient, normalised on treatment).

The target of data set [5] is T1, BTK. To be noted: single or multiple doses 0.5 mg to 600 mg up to 18 days; 100 and 200 mg b.i.d. up to 12 days; cited from earlier work.
Data set [6] can be described thus: 52-week open label extension study in CSU subjects (interim analyses).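 Also: Open-label extension assessing long-term safety and tolerability in CSU patients previously enrolled in the Phase 2b trial, dosed at 100 mg b.i.d.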 The class given is in vivo.
Experimental: In a 52-week open label extension study to evaluate the long-term safety and tolerability of LOU064 in eligible subjects with CSU who participated in the Phase 2b study the dose used was 100 mg b.i.d.
Table 4 presents the safety summary observed in the Phase 2b study up to the cut-off date for the interim analysis.
For data set [7] the following is noted: HS patients; cited from earlier work.
The conditions of data set [8]: higher dose treatment arms; cited from earlier work.
For data set [9] the following is noted: cited from earlier work.
The mark [10] stands for this setting: CS, CSU patients, Any dose, N = 267, listed as remibrutinib.
The mark [11] stands for this setting: 100 mg B.I.D., N = 100, interim analysis cut off 31 Aug. 2020.
Where [12] appears, read: 100 mg b.i.d., N = 100 interim analysis.
The mark [13] stands for this setting: ES, CSU patients, 100 mg b.i.d., N = 183, median 35.14 wks, listed as remibrutinib.
Setting [14] is: Phase 2b core and extension study.

“And” between values parts separate entries of the source, which are not always exact repeats. Identical values can stand only once. Like-named read-outs stand apart in the source and are kept apart here.

T1 sequence (Q06187 whole entry): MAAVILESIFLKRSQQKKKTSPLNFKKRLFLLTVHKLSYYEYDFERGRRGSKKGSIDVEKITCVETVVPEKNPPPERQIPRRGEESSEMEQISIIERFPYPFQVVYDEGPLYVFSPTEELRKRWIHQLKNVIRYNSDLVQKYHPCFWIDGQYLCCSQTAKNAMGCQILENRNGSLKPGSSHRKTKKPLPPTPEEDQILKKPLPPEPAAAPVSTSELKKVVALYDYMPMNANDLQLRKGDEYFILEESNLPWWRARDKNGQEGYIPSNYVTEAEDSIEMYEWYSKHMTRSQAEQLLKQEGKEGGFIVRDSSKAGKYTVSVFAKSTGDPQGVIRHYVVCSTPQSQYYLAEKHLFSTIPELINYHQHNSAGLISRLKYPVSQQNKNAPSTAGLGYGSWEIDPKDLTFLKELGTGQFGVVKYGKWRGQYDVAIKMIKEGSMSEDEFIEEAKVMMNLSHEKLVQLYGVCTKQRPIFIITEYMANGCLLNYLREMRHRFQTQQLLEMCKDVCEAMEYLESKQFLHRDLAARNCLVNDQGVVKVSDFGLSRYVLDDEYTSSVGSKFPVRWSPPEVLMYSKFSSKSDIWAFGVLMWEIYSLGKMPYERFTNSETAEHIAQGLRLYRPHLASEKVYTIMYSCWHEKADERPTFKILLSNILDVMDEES

With “rituximab: B-cell depletor, CD20 antagonist”, the “effect in HS explant cultures” value in the data set with HS explant cultures is listed as “anti-inflammatory effects”. Further, the “outcome of HS treatment using B-cell depletion” value with B cells was “successful treatment of HS”.
In the case of `CC#CC(=O)N1CCC[C@H]1c1nc(-c2ccc(C(=O)Nc3ccccn3)cc2)c2c(N)nccn12` [Acalabrutinib], the “commonly observed adverse reactions” value in data set [1] is “infection, headache, and diarrhea”.
Turning to `C=CC(=O)N(C)CCOc1c(N)ncnc1-c1cc(F)cc(NC(=O)c2ccc(C3CC3)cc2F)c1C` [LOU064, N-(3-(6-amino-5-(2-(N-methylacrylamido)ethoxy)pyrimidin-4-yl)-5-fluoro-2-methylphenyl)-4-cyclopropyl-2-fluorobenzamide], in data set [2], the “impact on exposure and efficacy of co-administered oral contraceptives (ethinylestradiol or levonorgestrel)” value was “without a major impact on their exposure and efficacy”. Also, the “change in clearance after repeated dosing” value on BTK [3] (doses lower than 50 mg, no difference at higher doses) was “lower clearance at steady state at Day 12 when compared to Day 1”. Besides, on BTK [3] (low doses), the “BTK occupancy in blood” value is “reaches full occupancy even at low doses”. Moreover, the “efficacy in CSU compared to the other doses” value in [4] (25 mg b.i.d. regimen, 12 weeks, CSU inadequately controlled by antihistamines) is recorded as “particularly effective”. Also, in [4] (setting [10]), the “AEs by PT: Headache” value is reported as 9.7%; the “AEs by primary system organ class: Infections and infestations” value is 24.0%; the “AEs by primary system organ class: Skin and subcutaneous tissue disorders” value (from here on “AEs … Skin and subcutaneous tissue disorders”) was found to be 16.9%. Moreover, the “Newly occurring notable transaminase increases: ALT>5×ULN, normalised on treatment” value in data set [4] (CS, any remibrutinib dose) is 1 patient. Also, the Short-term safety result at BTK [5] was “has been shown”. In [6] (setting [11]), the Death is 0 n (%), the “Discontinued study due to an SAE(s)” value was 0 n (%), the “Discontinued study due to any AE(s)” value was 0 n (%) and the “Non-fatal SAE” value is 3 (3.0) n (%). For the same compound, in data set [6] (setting [11]), the “Treatment interruption due to AE(s)” value is listed as 5 (5.0) n (%) and the “Treatment interruption due to SAE(s)” value was 1 (1.0) n (%). Moreover, the “Patients with AE(s)” value in [6] (100 mg B.I.D., N = 100, interim analysis cut off 31 Aug. 2020, median exposure 17.86 weeks) was 58 (58) n (%). In addition, the safety signal entry in data set [6] (100 mg b.i.d., 100 subjects, median exposure 17.86 weeks) is given as “No safety signal has been observed”. For the same compound, in [6] (setting [12]), the “SAEs reported (ovarian cyst, chest pain, appendicitis; none related to study drug)” value is given as “Three”; the “SOC Infections and infestations” value was determined as 14%; the “SOC Skin and subcutaneous tissue disorders” value turned out to be 13%; the “adverse event preferred term: diarrhea” value amounted to 4%. Besides, in [6] (setting [12]), the “adverse event preferred term: dizziness” value worked out at 3%; the “adverse event preferred term: gastroenteritis” value was determined as 3%; the “adverse event preferred term: headache” value came to 6%; the “bleeding events or events under SOC Blood and lymphatic system disorders” value was “no bleeding events”. Moreover, the “subjects who experienced at least one treatment emergent AE” value in [6] (setting [12]) is given as 58%. Besides, the “dose-limiting liver enzyme elevations and other off-target-effects” value in data set [6] (100 mg b.i.d., up to 52 weeks) is “does not induce any dose-limiting liver enzyme elevations and other off-target-effects”. Besides, in data set [6] (ES, 100 mg b.i.d., N=183), the “Incidence of AESI: bleeding” value is reported as 4.4%; the “Incidence of AESI: cytopenias” value is given as 0.5%; the “Incidence of AESI: infections” value is on record as 23%; the “Newly occurring notable transaminase increases: isolated ALT>3×ULN, normalized within 4 weeks” value worked out at 1 patient. The deaths entry in data set [6] (ES, 100 mg b.i.d., N=183, median 35.14 wks) is listed as “no deaths”. For the same compound, the “AEs … Skin and subcutaneous tissue disorders” value in [6] (ES, CSU patients, 100 mg b.i.d., N = 183, median 35.14 wks) is listed as 32 n. In [6] (setting [13]), the “AEs by PT: Headache” value was 6.6%; the “AEs by primary system organ class: Infections and infestations” value amounted to 23.0%; the “AEs … Skin and subcutaneous tissue disorders” value is reported as 17.5%; the “Discontinued study treatment due to AE(s)” value was found to be 6 n. For the same compound, the “Patients with SAE(s)” value in data set [6] (setting [13]) is given as 4 n. In data set [6] (setting [14]), the “ECG findings or QT of >500 ms” value is given as “no significant ECG findings or QT of >500 ms noted in any patient”, the “analysis of laboratory parameters” value is on record as “did not reveal significant safety concerns” and the vital signs entry was “no clinically meaningful changes”. Besides, the “safety profile over longer-term exposure” value in [6] (whole dose range, 100 mg bid up to 52 wks, patients with CSU) is reported as “no new safety signals”.
As for adalimumab, in data set [7], the “patients with suboptimal therapeutic responses” value is around 40%.
For the compound `C[C@H]1CN(C2COC2)CCN1c1ccc(Nc2cc(-c3ccnc(N4CCn5c(cc6c5CC(C)(C)C6)C4=O)c3CO)cn(C)c2=O)nc1` [fenebrutinib], in data set [8], the “subjects with transient grade 3 elevations of ALT and/or AST” value is 8.3% and 6.3%.
Consider `C=CC(=O)N1CCC[C@@H](n2c(=O)n(-c3ccc(Oc4ccccc4)cc3)c3c(N)nccc32)C1` [tolebrutinib], for which the dose-limiting side effects entry in [9] (human, in vivo) was “dose-limiting diarrhea”.
Regarding `C=CC(=O)N1CCC(CNc2ncnc(N)c2-c2ccc(Oc3ccccc3)cc2)CC1` [evobrutinib], the dose-limiting side effects result in data set [9] (75 mg b.i.d., Phase II clinical studies) is “dose-limiting liver enzyme elevations”.
